From patent US4572895A, “Process for preparing an antibiotic complex by culturing actinomyces strain ATCC 39417” (priority 1985, dated 1986)
≈ marks a conversion by molar mass, not a printed value.

What was measured:
[1] = tested on: gram-negative bacteria and fungi; assay: antibacterial/antifungal activity (MIC), summary; assay type: cell-based
[2] = tested on: Micrococcus luteus PCI 1001; assay: MIC, serial two-fold agar dilution; assay type: cell-based; conditions: PCI1001, nutrient agar
[3] = tested on: Pseudomonas aeruginosa D15; assay: MIC, serial two-fold agar dilution; assay type: cell-based; conditions: nutrient agar
Escherichia coli NIHJ = assay: MIC, serial two-fold agar dilution; assay type: cell-based; conditions: nutrient agar
Propionibacterium acnes = assay: MIC, serial two-fold agar dilution; assay type: cell-based; conditions: Cutibacterium acnes; GAM agar, anaerobe
[4] = tested on: Cryptococcus neoformans D49; assay: MIC, serial two-fold agar dilution; assay type: cell-based; conditions: Sabouraud agar
lymphoid leukemia L1210 = assay: antitumor activity, L1210 leukemia in mice; conditions: qd 1→9
Bacteroides fragilis = assay: MIC, serial two-fold agar dilution; assay type: cell-based; conditions: GAM agar, anaerobe
[5] = tested on: Klebsiella pneumoniae D11; assay: MIC, serial two-fold agar dilution; assay type: cell-based; conditions: nutrient agar
[6] = tested on: Aspergillus fumigatus IAM 2530; assay: MIC, serial two-fold agar dilution; assay type: cell-based; conditions: IAM2530, Sabouraud agar
[7] = acute toxicity, single intraperitoneal administration; conditions: mouse, in vivo; single ip, mice (ddY strain)
Clostridium perfringens = assay: microbe, parasite or virus in culture; assay type: cell-based
[8] = tested on: P388, L1210 and B16 tumors; assay: antitumor activity in mice, summary over P388, L1210 and B16; assay type: in vivo, BDF1 mice
[9] = tested on: Bacillus subtilis PCI 219; assay: MIC, serial two-fold agar dilution; assay type: cell-based; conditions: PCI219, nutrient agar
[10] = tested on: Candida albicans IAM 4888; assay: MIC, serial two-fold agar dilution; assay type: cell-based; conditions: IAM4888, Sabouraud agar
[11] = tested on: Staphylococcus aureus Smith; assay: MIC, serial two-fold agar dilution; assay type: cell-based; conditions: nutrient agar
[12] = tested on: lymphocytic leukemia P388; assay: antitumor activity, P388 leukemia in mice; conditions: qd 1→9
[13] = tested on: Trichophyton mentagrophytes D155; assay: MIC, serial two-fold agar dilution; assay type: cell-based; conditions: Sabouraud agar
Staphylococcus aureus = assay: anti-staphylococcal activity (MIC comparison); assay type: cell-based; conditions: vs BBM-2478B or chartreusin
Micrococcus flavus D12 = assay: MIC, serial two-fold agar dilution; assay type: cell-based; conditions: nutrient agar
Clostridium difficile = assay: MIC, serial two-fold agar dilution; assay type: cell-based; conditions: Clostridioides difficile; GAM agar, anaerobe
solubility = assay type: physicochemical
melanotic melanoma B16 = assay: antitumor activity, B16 melanoma in mice; conditions: qd 1→9
[14] = tested on: aerobic gram-positive bacteria and anaerobic bacteria; assay: antibacterial activity, summary; assay type: cell-based
Source text: Nutrient agar medium was used for gram-positive and gram-negative bacteria, GAM agar medium for anaerobes and Sabouraud agar medium for fungi.

[15] = tested on: Staphylococcus aureus 209P; assay: MIC, serial two-fold agar dilution; assay type: cell-based; conditions: nutrient agar

CO[C@@H]1[C@@H](N)[C@@H](O[C@H]2[C@H](Oc3cccc4c(O)c5c(=O)oc6ccc(C)c7c(=O)oc(c34)c5c67)O[C@H](C)[C@H](O)[C@]2(C)O)O[C@H](C)[C@@H]1O [BBM-2478A]
activity against gram-negative bacteria and fungi [1]: inactive
MIC [2]: 0.8 µg/mL (≈ 1.22 µM)
MIC [3]: 100 µg/mL (≈ 153 µM)
MIC (Escherichia coli NIHJ): 100 µg/mL (≈ 153 µM)
MIC (Propionibacterium acnes): 6.3 µg/mL (≈ 9.64 µM)
MIC [4]: > 100 µg/mL
Average wt. change on day 5 (lymphoid leukemia L1210; 0.01 mg/kg/day ip): +3.2 g
MST (lymphoid leukemia L1210; 0.01 mg/kg/day ip): 8.0 days
Survivors on day 5 (lymphoid leukemia L1210; 0.01 mg/kg/day ip): 6/6
Survivors on day 45 (lymphoid leukemia L1210; 0.01 mg/kg/day ip): 0/6
T/C (lymphoid leukemia L1210; 0.01 mg/kg/day ip): 100%
Average wt. change on day 5 (lymphoid leukemia L1210; 0.03 mg/kg/day ip): +2.9 g
MST (lymphoid leukemia L1210; 0.03 mg/kg/day ip): 8.0 days
Survivors on day 5 (lymphoid leukemia L1210; 0.03 mg/kg/day ip): 6/6
Survivors on day 45 (lymphoid leukemia L1210; 0.03 mg/kg/day ip): 0/6
T/C (lymphoid leukemia L1210; 0.03 mg/kg/day ip): 100%
Average wt. change on day 5 (lymphoid leukemia L1210; 0.1 mg/kg/day ip): +2.6 g
MST (lymphoid leukemia L1210; 0.1 mg/kg/day ip): 8.0 days
Survivors on day 5 (lymphoid leukemia L1210; 0.1 mg/kg/day ip): 6/6
Survivors on day 45 (lymphoid leukemia L1210; 0.1 mg/kg/day ip): 0/6
T/C (lymphoid leukemia L1210; 0.1 mg/kg/day ip): 100%
Average wt. change on day 5 (lymphoid leukemia L1210; 0.3 mg/kg/day ip): +1.3 g
MST (lymphoid leukemia L1210; 0.3 mg/kg/day ip): 10.5 days
Survivors on day 5 (lymphoid leukemia L1210; 0.3 mg/kg/day ip): 6/6
Survivors on day 45 (lymphoid leukemia L1210; 0.3 mg/kg/day ip): 0/6
Average wt. change on day 5 (lymphoid leukemia L1210; 1 mg/kg/day ip): -0.8 g
MST (lymphoid leukemia L1210; 1 mg/kg/day ip): 11.0 days
Survivors on day 5 (lymphoid leukemia L1210; 1 mg/kg/day ip): 6/6
Survivors on day 45 (lymphoid leukemia L1210; 1 mg/kg/day ip): 0/6
Average wt. change on day 5 (lymphoid leukemia L1210; 3 mg/kg/day ip): -0.1 g
MST (lymphoid leukemia L1210; 3 mg/kg/day ip): 12.0 days
Survivors on day 5 (lymphoid leukemia L1210; 3 mg/kg/day ip): 6/6
Survivors on day 45 (lymphoid leukemia L1210; 3 mg/kg/day ip): 0/6
MIC (Bacteroides fragilis): 12.5 µg/mL (≈ 19.1 µM)
MIC [5]: 100 µg/mL (≈ 153 µM)
MIC [6]: > 100 µg/mL
LD50 [7]: 38 mg/kg
MIC (Clostridium perfringens): 6.3 µg/mL (≈ 9.64 µM)
T/C values compared with chartreusin ([8]; all tumors tested, ip, qd 1→9): superior to those of chartreusin
antitumor activity ([8]; experimental mouse tumors): significant antitumor activity
MIC [9]: 0.8 µg/mL (≈ 1.22 µM)
MIC [10]: > 100 µg/mL
MIC [11]: 0.8 µg/mL (≈ 1.22 µM)
Average wt. change on day 5 ([12]; 0.01 mg/kg/day ip): +2.0 g
MST ([12]; 0.01 mg/kg/day ip): 10.0 days
Survivors on day 5 ([12]; 0.01 mg/kg/day ip): 6/6
Survivors on day 45 ([12]; 0.01 mg/kg/day ip): 0/6
T/C ([12]; 0.01 mg/kg/day ip): 111%
Average wt. change on day 5 ([12]; 0.03 mg/kg/day ip): +2.3 g
MST ([12]; 0.03 mg/kg/day ip): 10.0 days
Survivors on day 5 ([12]; 0.03 mg/kg/day ip): 6/6
Survivors on day 45 ([12]; 0.03 mg/kg/day ip): 0/6
Average wt. change on day 5 ([12]; 0.1 mg/kg/day ip): +1.2 g
MST ([12]; 0.1 mg/kg/day ip): 14.5 days
Survivors on day 5 ([12]; 0.1 mg/kg/day ip): 6/6
Survivors on day 45 ([12]; 0.1 mg/kg/day ip): 0/6
Average wt. change on day 5 ([12]; 0.3 mg/kg/day ip): +1.8 g
MST ([12]; 0.3 mg/kg/day ip): 17.0 days
Survivors on day 5 ([12]; 0.3 mg/kg/day ip): 6/6
Survivors on day 45 ([12]; 0.3 mg/kg/day ip): 0/6
Average wt. change on day 5 ([12]; 1 mg/kg/day ip): +0.8 g
MST ([12]; 1 mg/kg/day ip): 21.5 days
Survivors on day 5 ([12]; 1 mg/kg/day ip): 6/6
Survivors on day 45 ([12]; 1 mg/kg/day ip): 0/6
Average wt. change on day 5 ([12]; 3 mg/kg/day ip): -1.0 g
MST ([12]; 3 mg/kg/day ip): 20.0 days
Survivors on day 5 ([12]; 3 mg/kg/day ip): 5/5
Survivors on day 45 ([12]; 3 mg/kg/day ip): 0/5
MIC [13]: > 100 µg/mL
anti-staphylococcal activity relative to BBM-2478B or chartreusin (Staphylococcus aureus): two to four times higher
MIC (Micrococcus flavus D12): 0.8 µg/mL (≈ 1.22 µM)
MIC (Clostridium difficile): 12.5 µg/mL (≈ 19.1 µM)
solubility in acidic water (solubility; acidic water): readily soluble
solubility in dimethyl sulfoxide, dimethylformamide, dioxane (solubility; dimethyl sulfoxide, dimethylformamide, dioxane): readily soluble
solubility in methanol, ethanol and chloroform (solubility; methanol, ethanol, chloroform): slightly soluble
solubility in other organic solvents (solubility; other organic solvents): insoluble
Average wt. change on day 5 (melanotic melanoma B16; 0.03 mg/kg/day ip): +2.0 g
MST (melanotic melanoma B16; 0.03 mg/kg/day ip): 16.0 days
Survivors on day 5 (melanotic melanoma B16; 0.03 mg/kg/day ip): 6/6
Survivors on day 45 (melanotic melanoma B16; 0.03 mg/kg/day ip): 0/6
T/C (melanotic melanoma B16; 0.03 mg/kg/day ip): 114%
Average wt. change on day 5 (melanotic melanoma B16; 0.1 mg/kg/day ip): +2.5 g
MST (melanotic melanoma B16; 0.1 mg/kg/day ip): 18.5 days
Survivors on day 5 (melanotic melanoma B16; 0.1 mg/kg/day ip): 6/6
Survivors on day 45 (melanotic melanoma B16; 0.1 mg/kg/day ip): 0/6
Average wt. change on day 5 (melanotic melanoma B16; 0.3 mg/kg/day ip): +2.5 g
MST (melanotic melanoma B16; 0.3 mg/kg/day ip): 25.5 days
Survivors on day 5 (melanotic melanoma B16; 0.3 mg/kg/day ip): 6/6
Survivors on day 45 (melanotic melanoma B16; 0.3 mg/kg/day ip): 0/6
Average wt. change on day 5 (melanotic melanoma B16; 1 mg/kg/day ip): +2.2 g
MST (melanotic melanoma B16; 1 mg/kg/day ip): 34.5 days
Survivors on day 5 (melanotic melanoma B16; 1 mg/kg/day ip): 6/6
Survivors on day 45 (melanotic melanoma B16; 1 mg/kg/day ip): 0/6
Average wt. change on day 5 (melanotic melanoma B16; 3 mg/kg/day ip): +1.5 g
MST (melanotic melanoma B16; 3 mg/kg/day ip): 41.5 days
Survivors on day 5 (melanotic melanoma B16; 3 mg/kg/day ip): 6/6
Survivors on day 45 (melanotic melanoma B16; 3 mg/kg/day ip): 0/6
antibacterial activity [14]: potent antibacterial activity
MIC [15]: 1.6 µg/mL (≈ 2.45 µM)
